Experimental data taken from ChEMBL document CHEMBL1139663, “6H-Benzo[c]chromen-6-one derivatives as selective ERbeta agonists” (Bioorg Med Chem Lett, 2006).

Columns and labels:
Estrogen receptor beta [1] = molecular target: T1, Estrogen receptor beta (Homo sapiens, UniProt Q92731)
Description: Binding affinity to ERbeta

Estrogen receptor = molecular target: T2, Estrogen receptor (Homo sapiens, UniProt P03372)
T2 sequence (P03372 whole entry): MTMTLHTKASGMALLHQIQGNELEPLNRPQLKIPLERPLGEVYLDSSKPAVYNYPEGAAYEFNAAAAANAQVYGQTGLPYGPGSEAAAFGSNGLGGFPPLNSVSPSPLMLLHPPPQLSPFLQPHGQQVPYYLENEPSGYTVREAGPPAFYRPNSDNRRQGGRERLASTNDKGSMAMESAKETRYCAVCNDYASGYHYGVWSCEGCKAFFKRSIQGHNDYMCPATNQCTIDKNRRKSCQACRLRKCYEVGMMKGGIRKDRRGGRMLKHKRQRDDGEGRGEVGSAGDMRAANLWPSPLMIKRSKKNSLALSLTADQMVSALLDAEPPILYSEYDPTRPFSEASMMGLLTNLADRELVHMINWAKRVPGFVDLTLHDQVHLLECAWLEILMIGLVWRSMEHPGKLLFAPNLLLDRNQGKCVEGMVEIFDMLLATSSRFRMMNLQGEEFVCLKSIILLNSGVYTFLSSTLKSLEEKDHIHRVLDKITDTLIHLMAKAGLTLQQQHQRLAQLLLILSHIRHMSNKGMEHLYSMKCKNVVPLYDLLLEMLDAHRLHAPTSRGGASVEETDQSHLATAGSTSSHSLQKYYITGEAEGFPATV
Description: Binding affinity to ERalpha

Estrogen receptor beta [2] = molecular target: T1, Estrogen receptor beta; remark: listed apart in the source
Description: Binding affinity to ERbeta in HTRF coactivator recruitment assay

Estrogen receptor beta [3] = molecular target: T1, Estrogen receptor beta; remark: listed apart in the source
Description: Binding affinity to ERbeta in presence of serum

T1 sequence (Q92731 whole entry): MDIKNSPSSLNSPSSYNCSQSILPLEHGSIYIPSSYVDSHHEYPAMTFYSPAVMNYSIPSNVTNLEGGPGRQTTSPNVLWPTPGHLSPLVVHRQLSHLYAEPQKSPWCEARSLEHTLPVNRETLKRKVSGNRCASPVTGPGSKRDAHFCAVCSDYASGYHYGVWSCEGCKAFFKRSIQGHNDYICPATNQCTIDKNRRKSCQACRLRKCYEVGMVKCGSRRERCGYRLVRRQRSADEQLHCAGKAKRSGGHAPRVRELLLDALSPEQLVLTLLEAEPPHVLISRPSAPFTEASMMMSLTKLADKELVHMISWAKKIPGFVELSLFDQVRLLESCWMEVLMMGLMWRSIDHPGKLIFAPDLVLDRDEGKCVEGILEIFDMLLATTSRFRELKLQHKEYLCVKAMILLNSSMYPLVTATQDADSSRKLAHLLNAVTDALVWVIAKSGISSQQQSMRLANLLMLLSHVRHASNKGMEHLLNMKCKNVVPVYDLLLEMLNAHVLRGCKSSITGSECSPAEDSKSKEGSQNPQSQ

Row | Compound | IC50 (Estrogen receptor beta [1]) [nM] | IC50 (Estrogen receptor) [nM] | EC50 (Estrogen receptor beta [2]) [nM] | IC50 (Estrogen receptor beta [3]) [nM]
1 | O=c1oc2c(Cl)c(O)ccc2c2cc(F)c(O)c(Cl)c12 | 180 | 11600 | – | –
2 | CC/C=C/c1cc2c(cc1Br)c(=O)oc1c(C)c(O)ccc12 | 26 | 1090 | – | –
3 | CCC1Oc2c(ccc(O)c2C)-c2ccc(O)c(C)c21 (stereo not drawn) | 3.2 | 101 | – | –
4 | COc1cc2c(=O)oc3c(C)c(O)ccc3c2cc1Br | 77 | 10000 | – | –
5 | Cc1c(O)ccc2c1OC(C)(C)c1c-2ccc(O)c1C | 45 | 468 | – | –
6 | C=Cc1ccc2c(c1)c(=O)oc1c(C)c(O)ccc12 | 310 | 4590 | – | –
7 | Cc1cc(O)cc2c1-c1ccc(O)c(C)c1OC2 | 74 | 1030 | – | –
8 | Cc1c(O)ccc2c1c(=O)oc1c(F)c(O)ccc12 | 54 | 1580 | – | –
9 | Cc1c(O)ccc2c1oc(=O)c1cccc(C)c12 | 326 | > 10000 | – | –
10 | CCc1cc(O)cc2c(=O)oc3c(C)c(O)ccc3c12 | 91 | 1780 | – | –
11 | Cc1c(O)ccc2c1c(=O)oc1c(Br)c(O)ccc12 | 67 | 1920 | – | –
12 | Cc1cc(O)cc2c1-c1ccc(O)c(C)c1OC2CC(C)C (stereo not drawn) | 49 | 627 | – | –
13 | Cc1c(O)ccc2c1c(=O)oc1cc(O)ccc12 | 49 | 1170 | – | –
14 | Cc1cc2c(cc1Br)c(=O)oc1c(C)c(O)ccc12 | 215 | 6850 | – | –
15 | COc1ccc2c(c1C)c(=O)oc1c(C)c(O)ccc12 | 117 | 1000 | – | –
16 | C=Cc1cc(OC)cc2c(=O)oc3c(C)c(O)ccc3c12 | 53 | > 10000 | – | –
17 | Cc1c(O)ccc2c1c(=O)oc1cc(O)cc(C)c12 | 67 | 1860 | – | –
18 | Cc1cc(C)c2c(c1)c(=O)oc1cc(O)ccc12 | 90 | 585 | – | –
19 | Cc1c(O)ccc2c1oc(=O)c1c(C)c(N)ccc12 | 279 | 14300 | – | –

Row | Compound | IC50 (Estrogen receptor beta [1]) [nM] | IC50 (Estrogen receptor) [nM] | EC50 (Estrogen receptor beta [2]) [nM] | IC50 (Estrogen receptor beta [3]) [nM]
20 | COc1ccc2c(c1)c(=O)oc1c(C)c(O)ccc12 | 308 | > 10000 | – | –
21 | Cc1c(O)cc(C)c2c1oc(=O)c1cc(O)ccc12 | 27 | 488 | – | –
22 | Cc1c(O)ccc2c1oc(=O)c1c(C)ccc(C)c12 | 80 | 3070 | – | –
23 | Cc1c(O)ccc2c1oc(=O)c1cc(O)cc(C)c12 | 54 | 583 | – | –
24 | Cc1cc(Br)c2c(c1)c(=O)oc1c(C)c(O)ccc12 | 44 | 3120 | – | –
25 | Cc1c(O)ccc2c1oc(=O)c1cc(O)ccc12 | 46 | 654 | – | –
26 | Cc1c(O)ccc2c1oc(=O)c1c(C)cccc12 | 93 | > 10000 | – | –
27 | C=Cc1cccc2c(=O)oc3c(C)c(O)ccc3c12 | 208 | > 10000 | – | –
28 | Cc1c(O)ccc2c1oc(=O)c1cc(Br)ccc12 | 128 | > 10000 | – | –
29 | C/C=C/c1cccc2c(=O)oc3c(C)c(O)ccc3c12 | 116 | 3030 | – | –
30 | Cc1c(O)ccc2c1oc(=O)c1ccccc12 | 1450 | > 10000 | – | –
31 | CCc1cc(OC)cc2c(=O)oc3c(C)c(O)ccc3c12 | 69 | 9830 | – | –
32 | Cc1cc2c(=O)oc3c(C)c(O)ccc3c2c(C)c1Br | 57 | > 10000 | – | –
33 | C=CCc1cc(C)cc2c(=O)oc3c(C)c(O)ccc3c12 | 35 | 10000 | – | –
34 | CCc1c(O)ccc2c1oc(=O)c1cc(Br)ccc12 | 2340 | 5460 | – | –
35 | Cc1c(O)ccc2c1oc(=O)c1c(C)c(NC=O)ccc12 | 957 | > 10000 | – | –
36 | Cc1c(O)ccc2c1oc(=O)c1c(O)c(O)ccc12 | 82 | 1280 | – | –
37 | Cc1c(O)ccc2c1oc(=O)c1c(C)c(NS(C)(=O)=O)ccc12 | 433 | 4260 | – | –
38 | Cc1c(O)ccc2c1COc1c-2ccc(O)c1C | 88 | 4610 | – | –

The remaining compounds from weak to strong by IC50 (Estrogen receptor beta [1]), led by results:

Row | IC50 (Estrogen receptor beta [1]) [nM] | IC50 (Estrogen receptor) [nM] | EC50 (Estrogen receptor beta [2]) [nM] | IC50 (Estrogen receptor beta [3]) [nM] | Compound
39 | 24 | 1210 | – | – | Cc1cc(O)cc2c1-c1ccc(O)c(C)c1OC2C (stereo not drawn)
40 | 24 | 597 | – | – | Cc1c(O)ccc2c1oc(=O)c1c(Br)cc(Br)cc12
41 | 22 | 626 | – | – | CCCC1Oc2c(ccc(O)c2C)-c2c(C)cc(O)cc21 (stereo not drawn)
42 | 22 | 597 | – | – | Cc1c(O)c(Cl)c(C)c2c1c(=O)oc1c(Cl)c(O)ccc12
43 | 21 | 228 | – | – | CCc1c(O)ccc2c1c(=O)oc1c(F)c(O)ccc12
44 | 20 | 3710 | – | – | Cc1cc(C)c2c(c1)c(=O)oc1c(C)c(O)ccc12
45 | 19 | 524 | – | – | Cc1c(O)c(Cl)cc2c1c(=O)oc1c(Cl)c(O)ccc12
46 | 18 | 2520 | – | – | Cc1cc(O)c(Cl)c2c(=O)oc3c(Cl)c(O)ccc3c12
47 | 16 | 4160 | – | – | COc1c(C)cc2c(=O)oc3c(C)c(O)ccc3c2c1C
48 | 14 | 484 | – | – | CCc1c(O)ccc2c1c(=O)oc1c(C)c(O)ccc12
49 | 13 | 157 | – | – | C=CCC1(C)Oc2c(ccc(O)c2C)-c2c(C)cc(O)c(C)c21 (stereo not drawn)
50 | 12 | – | – | – | C=Cc1cc(O)cc2c1-c1ccc(O)c(C)c1CC2 [EFFUSOL]
51 | 10 | 10000 | > 1000 | 1280 | C=Cc1cc(C)cc2c(=O)oc3c(C)c(O)ccc3c12
52 | 9 | 237 | – | – | Cc1cc(O)c(C)c2c1-c1ccc(O)c(C)c1OC2C (stereo not drawn)
53 | 8 | 435 | – | – | CCC1Oc2c(ccc(O)c2C)-c2c(C)cc(O)cc21 (stereo not drawn)
54 | 8 | 335 | – | – | Cc1c(O)ccc2c1OC(C)c1c-2ccc(O)c1C (stereo not drawn)
55 | 7.8 | 229 | – | – | CCc1c(O)ccc2c1oc(=O)c1c(C)c(O)ccc12
56 | 6.7 | 785 | – | – | Cc1c(O)cc(C)c2c1oc(=O)c1c(C)c(O)ccc12
57 | 5.7 | 716 | – | – | Cc1c(O)ccc2c1oc(=O)c1c(C)c(O)cc(C)c12
58 | 4.1 | 159 | 7.2 | 78 | Cc1c(O)ccc2c1oc(=O)c1c(C)c(O)ccc12
59 | 2.3 | 129 | – | – | CCC1Oc2c(ccc(O)c2C)-c2c(C)cc(O)c(C)c21 (stereo not drawn)
60 | 1.15 | 225 | – | – | COc1c(C)c(Br)c2c(=O)oc3c(C)c(O)ccc3c2c1C
